Laboratory results as given in patent US20240002499A1, “ANTI-CLIC1 PROTEIN ANTIBODIES AND THE DIAGNOSTIC AND THERAPEUTIC USES THEREOF” (Universita' Degli Studi di Milano, priority 2020, published 2024).
“Also recorded” adds a separate entry of the source.

How the values were obtained:
tmCLIC1 ion channel = biological target: T1, tmCLIC1 ion channel (Mus musculus, UniProt Q9Z1Q5); experiment: Whole-cell patch clamp on BV2 microglial cells with β-amyloid; type: cell-based, mice; conditions: blocker perfused after tmCLIC1omab
T1 construct: endogenous in cells; host or cells: BV-2 mouse microglial cell line
Text: The microglial cells used (BV-2) originated from an immortalised cell line deriving from C57BL/6 mice and commonly marketed. The culture medium used was RPMI (Thermo Fisher Scientific) with the addition of 10% FBS (Euroclone) and 1% Pen/Strep ([…], Thermo Fisher Scientific).
The microelectrodes were obtained from borosilicate capillaries with a diameter of 1.5 mm. Micropipettes were produced with a P-97 Brown-Flaming puller (Sutter Instruments, Novato, CA), with which the capillaries were forged to a tip diameter of 1-1.5 μm and electrical resistance of 5-8 MΩ.
The perforated patch clamp configuration was used for the whole-cell experiments, employing the antibiotic gramicidin (final concentration in pipette 5 μg/ml) which forms pores in the membrane that are only permeable to monovalent cations; in this way, the cytoplasmic concentration of the chloride ion remains unchanged throughout the experiment. The ion currents were digitised at 5 kHz and filtered at 1 kHz. Clampex 9.2 was used as the data acquisition and analysis programme.
In the time-course experiments, the potential was set on the basis of the resting potential of each cell, and a voltage step of +60 mV was applied every 5 seconds. The current measured is that observed at the end of the voltage step lasting 800 ms. When the amplitude of the current reaches a constant value, the antibody and IAA94 are added in sequence. […]

CLIC1 = biological target: T2, CLIC1 (Homo sapiens, UniProt O00299); experiment: Whole-cell patch clamp on HEK cells transfected with CLIC1 plasmid; type: cell-based; conditions: HEK cells overexpressing CLIC1; voltage steps from −60 to +80 mV; IAA94 50 μM
T2 construct: expressed in transfected cells; host or cells: HEK cells
Method: FIG. 17. Current/voltage relationship of CLIC1 membrane current in whole-cell patch clamp experiments. HEK cells were transfected with CLIC1 plasmid to overexpress the CLIC1 protein. After recording control current (filled cycles; n=5) cells were perfused alternatively with the polyclonal antibody (open triangles; n=7), tmCLIComab (inverse open triangles; n=10) and with 50 μM IAA94 (filled squared; n=11). The whole cells current is expressed as a current density.
The reference sequence of the CLIC1 protein used in the experiments described in the present patent application is filed at UniProt under number UniProtKB—000299 (CLIC1 human), and described in the article Harrop S. J. et al., “Crystal structure of a soluble form of the intracellular chloride ion channel CLIC1 (NCC27) at 1.4-Å Resolution”; The Journal of Biological Chemistry, Vol. 276 No. 48, November 30, pp. 44993-45000 (2001).
The potential was set on the basis of the resting potential of each cell (between 0 and −80 mV). The CLIC1-mediated chlorine currents were isolated from other ion currents by mathematical subtraction of the residual current following perfusion of 100 μM IAA94 dissolved in the external solution.

human glioblastoma cells [1] = experiment: Growth curves of human glioblastoma cells in primary culture; type: cell-based; conditions: glioblastoma cells, FIG. 9
Text: The primary glioblastoma cell lines, already tested for stem cell properties and carcinogenicity, were kindly supplied by Professor T. Florio's laboratory at Genoa University (Genoa, Italy). The cells were obtained from a surgical biopsy performed in the Neurosurgery Department of IRCCS-AOU San Martino IST (Genoa, Italy), from patients who had not received any treatment before the operation. The samples were histologically classified as GB grade IV (according to the WHO classification), and were used after obtaining the patients' informed consent and the approval of the Institutional Ethics Committee (IEC). The cells were cultured in stem cell-permissive medium consisting of Dulbecco's Modified Eagle's Medium (DMEM) and F12-GlutaMAX at the ratio of 1:1, supplemented with 1×B27 (Thermo Fisher Scientific), […] of fibroblast growth factor (FGF, Miltenyi Biotec), […] of human epidermal growth factor (EGF, Miltenyi Biotec) and 1% penicillin/streptomycin (Pen/Strep, […]) (Thermo Fisher Scientific).
The cells were seeded in 24-well plates (20,000 cells/well) and counted after 24, 48, 72 and 96 hours to construct the growth curve. The cells were collected and centrifuged, and the resuspended pellet was diluted 1:1 with Trypan Blue. An automated counter (Countess II, Thermo Fisher Scientific) was used to count the cells. All data were normalized to their controls.

human glioblastoma cells [2] = experiment: ROS production in human glioblastoma cells in primary culture; type: cell-based
Method: In the subsequent functional experiment, ROS production was measured over time. The graph in FIG. 11 relates to the acquisition of fluorescence signals proportional to the amount of cytoplasmic ROS in glioblastoma cells. The cells were treated with both the antibody and the tmCLIC1 channel blocker.

COLO201 [3] = experiment: COLO201 spheroids, 3D culture; type: cell-based; conditions: treated 24 to 96 hours, area normalized on initial area
Method: To evaluate whether tmCLIC1omab is able to penetrate across tumor spheroids, a 3D culture was performed. After the complete formation of spheroids, treatments were added and the area was measured every 24 hours up to 96 hours. The area at each time point was then normalized on the initial spheroids' area.
Spheroids were formed with hanging-drop method and then plated in rounded 96 plates coated with 5% of agar. After the complete formation of spheroids, treatments were added and the area was measured every 24 hours up to 96 hours. The area at each time point was then normalized on the initial spheroids' area.

COLO201 [4] = experiment: Trans well migration and invasion assay; type: cell-based; conditions: COLO201 WT, 72 h
Method: The overexpression of tmCLIC1 in the most aggressive cell lines of colorectal cancer and its pivotal role in regulation of cell cycle progression and proliferation, opens a question on the function of tmCLIC1 activity on migration and invasion potential of CRCs, that makes colorectal cancer still uncurable. We performed a Trans well assay to understand whether CLIC1 impairment could affect the migration and invasion potential of COLO201. Cells were plated after 60 hours of serum deprivation on a porous membrane, permeable only to growth factor, in contact to complete medium. The resulting chemo-attractant gradient leads the migrative cells to cross the membranes that are then stained with DAPI to visualize the nuclei. […] For invasion assays, we coated with Matrigel the porous membrane to mimic the extracellular matrix that cells must disrupt to invade tissues and mucosa.
Cells were plated after 60 hours of serum deprivation on a […] porous membrane, permeable only to growth factor, in contact to complete medium. Membranes were cut, stained with DAPI dye, and included with mowiol. Cover glasses were examined under Zeiss Examiner A1 fluorescence microscope with a Zeiss 40×/0.75 NA water immersion lens.

pMAP38 = experiment: Western blot of phosphorylated MAP38 in COLO201; type: cell-based; conditions: COLO201, 72 h of treatment
[5] = system: Metalloproteinase 7 (MMP7); experiment: Western blot of Metalloproteinase 7 in COLO201; type: cell-based; conditions: COLO201, 72 h of treatment
tumour cells = conditions: both in vitro and in vivo; cited from earlier work
[6] = cited from earlier work

For C[C@]1(C2CCCC2)Cc2cc(OCC(=O)O)c(Cl)c(Cl)c2C1=O [IAA94, R(+)-[(6,7-dichloro-2-cyclopentyl-2,3-dihydro-2-methyl-1-oxo-1H-inden-5-yl)-oxy]acetic acid, reference compound], the “further decrease in membrane current after antibody treatment” value (tmCLIC1 ion channel) was “only generates a minimal decrease in current”, the “inhibition of CLIC1 ionic whole-cell current” value (CLIC1) was “maximum inhibition” and the “growth rate compared with Clic1−/− knockout cells” value (human glioblastoma cells [1]) was “the same growth rate”. For the same molecule, the “fall in ROS production” value (human glioblastoma cells [2]; FIG. 11 legend, versus control) was “about fourfold”, the “reduction of the slope of the ROS increase curve” value (human glioblastoma cells [2]; fluorescence signals proportional to cytoplasmic ROS) was “about fivefold” and the “spheroids' area / proliferation of spheroids versus control” value (COLO201 [3]) was “significantly smaller compared to the control from 48 h; also recorded: impair proliferation of spheroids significantly after 48 hours”. For the same molecule, the “migration (number of migrative nuclei) versus control” value (COLO201 [4]) was “significant lower number of migrative nuclei”, the “invasion (number of invasive nuclei) versus control” value (COLO201 [4]; Matrigel-coated membrane) was “the same behavior seen for migration assay” and the “expression of pMAP38” value (pMAP38) was “downregulated”. The “expression of Metalloproteinase 7” value [5] was “mainly abolished”, the “proliferation of the tumour cells” value (tumour cells) was “drastic slowing” and the “usability in vivo / side effects” value [6] was “unusable in vivo for its side effects”.
